The kinase profiling compilation of Christmann-Franck et al. (2016)

Key:
Test in all cases: KINOMEscan competition binding
EPHA7 (human) = EPHA7 (human) (UniProt Q15375)
MYO3B (human) = MYO3B (human) (UniProt Q8WXR4)
MAPK8 (human) = MAPK8 (human) (UniProt P45983)
CDK18 (human) = CDK18 (human) (UniProt Q07002)
RPS6KA4 KD1 (human) = RPS6KA4 KD1 (human) (UniProt O75676)
MAP4K5 (human) = MAP4K5 (human) (UniProt Q9Y4K4)
CIT (human) = CIT (human) (UniProt O14578)
CDK8 (human) = CDK8 (human) (UniProt P49336)
MAPK14 (human) = MAPK14 (human) (UniProt Q16539)
CDC42BPB (human) = CDC42BPB (human) (UniProt Q9Y5S2)
GSK3A (human) = GSK3A (human) (UniProt P49840)
[1] = molecular target: FLT3 (human), P36888 [K663Q]
EPHB3 (human) = EPHB3 (human) (UniProt P54753)
PIM3 (human) = PIM3 (human) (UniProt Q86V86)
SYK (human) = SYK (human) (UniProt P43405)
LIMK1 (human) = LIMK1 (human) (UniProt P53667)
EPHB1 (human) = EPHB1 (human) (UniProt P54762)
NTRK2 (human) = NTRK2 (human) (UniProt Q16620)
[2] = molecular target: ABL1 (human), P00519 [T315I]
TAOK3 (human) = TAOK3 (human) (UniProt Q9H2K8)
MATK (human) = MATK (human) (UniProt P42679)
FGFR2 (human) = FGFR2 (human) (UniProt P21802)
HIPK1 (human) = HIPK1 (human) (UniProt Q86Z02)
INSRR (human) = INSRR (human) (UniProt P14616)
FRK (human) = FRK (human) (UniProt P42685)
[3] = molecular target: ABL1 (human), P00519 [Y253F]
MKNK2 (human) = MKNK2 (human) (UniProt Q9HBH9)
MAP3K2 (human) = MAP3K2 (human) (UniProt Q9Y2U5)
[4] = molecular target: FLT3 (human), P36888 [D835Y]
PLK4 (human) = PLK4 (human) (UniProt O00444)
[5] = molecular target: JAK1 JH2 pseudokinase (human) (UniProt P23458)
LYN (human) = LYN (human) (UniProt P07948)
CDK19 (human) = CDK19 (human) (UniProt Q9BWU1)
TYRO3 (human) = TYRO3 (human) (UniProt Q06418)
RPS6KA5 KD1 (human) = RPS6KA5 KD1 (human) (UniProt O75582)
[6] = molecular target: FLT3 (human), P36888 [N841I]
STK39 (human) = STK39 (human) (UniProt Q9UEW8)
GSK3B (human) = GSK3B (human) (UniProt P49841)
YES1 (human) = YES1 (human) (UniProt P07947)
CSNK1G1 (human) = CSNK1G1 (human) (UniProt Q9HCP0)

Chain of CDC42BPB (human) (Q9Y5S2 whole entry, looked up): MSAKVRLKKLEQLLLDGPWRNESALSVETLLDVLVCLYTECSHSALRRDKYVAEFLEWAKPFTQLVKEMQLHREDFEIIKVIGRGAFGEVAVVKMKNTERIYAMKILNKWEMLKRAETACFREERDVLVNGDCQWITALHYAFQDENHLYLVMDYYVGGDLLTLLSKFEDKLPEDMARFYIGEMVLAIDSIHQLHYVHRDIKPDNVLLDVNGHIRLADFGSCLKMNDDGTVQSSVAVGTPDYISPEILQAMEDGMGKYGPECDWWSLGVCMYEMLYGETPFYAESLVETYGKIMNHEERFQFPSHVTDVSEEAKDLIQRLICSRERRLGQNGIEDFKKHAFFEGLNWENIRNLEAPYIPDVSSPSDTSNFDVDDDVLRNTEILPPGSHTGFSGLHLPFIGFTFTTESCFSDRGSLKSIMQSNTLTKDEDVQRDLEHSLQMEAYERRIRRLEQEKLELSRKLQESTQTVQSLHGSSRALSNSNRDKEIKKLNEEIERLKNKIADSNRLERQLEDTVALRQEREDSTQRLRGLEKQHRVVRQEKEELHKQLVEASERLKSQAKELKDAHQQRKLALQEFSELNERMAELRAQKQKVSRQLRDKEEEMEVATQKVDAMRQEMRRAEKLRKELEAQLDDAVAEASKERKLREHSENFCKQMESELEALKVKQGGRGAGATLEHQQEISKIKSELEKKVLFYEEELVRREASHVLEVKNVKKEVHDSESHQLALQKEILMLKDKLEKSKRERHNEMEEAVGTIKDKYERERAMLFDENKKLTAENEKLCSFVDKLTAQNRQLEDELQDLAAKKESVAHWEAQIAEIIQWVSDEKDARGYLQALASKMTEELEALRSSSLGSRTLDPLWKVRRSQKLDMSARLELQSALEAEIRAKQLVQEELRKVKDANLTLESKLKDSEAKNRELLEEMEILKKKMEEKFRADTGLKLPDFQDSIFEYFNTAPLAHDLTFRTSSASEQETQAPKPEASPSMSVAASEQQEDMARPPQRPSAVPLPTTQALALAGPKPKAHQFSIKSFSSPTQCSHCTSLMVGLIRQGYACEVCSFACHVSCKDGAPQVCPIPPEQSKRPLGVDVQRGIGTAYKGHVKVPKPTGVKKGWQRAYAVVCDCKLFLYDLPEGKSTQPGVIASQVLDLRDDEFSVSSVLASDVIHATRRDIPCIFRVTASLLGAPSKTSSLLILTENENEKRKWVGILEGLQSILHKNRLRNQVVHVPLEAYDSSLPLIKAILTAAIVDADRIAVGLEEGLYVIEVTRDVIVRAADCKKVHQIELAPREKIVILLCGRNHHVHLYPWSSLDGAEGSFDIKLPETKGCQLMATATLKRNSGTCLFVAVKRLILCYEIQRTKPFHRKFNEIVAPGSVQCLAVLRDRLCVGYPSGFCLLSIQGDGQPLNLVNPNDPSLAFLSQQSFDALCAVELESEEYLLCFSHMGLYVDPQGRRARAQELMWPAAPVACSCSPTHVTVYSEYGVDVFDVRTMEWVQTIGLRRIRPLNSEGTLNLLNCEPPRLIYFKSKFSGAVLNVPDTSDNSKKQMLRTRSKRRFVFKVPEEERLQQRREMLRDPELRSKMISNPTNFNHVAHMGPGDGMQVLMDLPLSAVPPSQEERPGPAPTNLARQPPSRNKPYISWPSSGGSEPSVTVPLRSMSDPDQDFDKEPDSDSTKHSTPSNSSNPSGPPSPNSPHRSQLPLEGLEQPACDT
Chain of MAPK8 (human) (P45983 whole entry, looked up): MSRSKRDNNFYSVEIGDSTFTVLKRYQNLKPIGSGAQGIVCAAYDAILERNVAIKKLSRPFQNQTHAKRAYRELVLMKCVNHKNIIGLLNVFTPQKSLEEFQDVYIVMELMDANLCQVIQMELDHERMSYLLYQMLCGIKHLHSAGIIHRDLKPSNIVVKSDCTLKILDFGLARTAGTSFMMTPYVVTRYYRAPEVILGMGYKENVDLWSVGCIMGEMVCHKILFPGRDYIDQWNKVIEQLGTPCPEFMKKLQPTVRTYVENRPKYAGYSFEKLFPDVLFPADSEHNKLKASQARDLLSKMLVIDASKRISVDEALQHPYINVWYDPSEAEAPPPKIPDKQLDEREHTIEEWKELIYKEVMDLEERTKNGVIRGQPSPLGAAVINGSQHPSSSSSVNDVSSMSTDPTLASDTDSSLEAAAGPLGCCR
Chain of NTRK2 (human) (Q16620 whole entry, looked up): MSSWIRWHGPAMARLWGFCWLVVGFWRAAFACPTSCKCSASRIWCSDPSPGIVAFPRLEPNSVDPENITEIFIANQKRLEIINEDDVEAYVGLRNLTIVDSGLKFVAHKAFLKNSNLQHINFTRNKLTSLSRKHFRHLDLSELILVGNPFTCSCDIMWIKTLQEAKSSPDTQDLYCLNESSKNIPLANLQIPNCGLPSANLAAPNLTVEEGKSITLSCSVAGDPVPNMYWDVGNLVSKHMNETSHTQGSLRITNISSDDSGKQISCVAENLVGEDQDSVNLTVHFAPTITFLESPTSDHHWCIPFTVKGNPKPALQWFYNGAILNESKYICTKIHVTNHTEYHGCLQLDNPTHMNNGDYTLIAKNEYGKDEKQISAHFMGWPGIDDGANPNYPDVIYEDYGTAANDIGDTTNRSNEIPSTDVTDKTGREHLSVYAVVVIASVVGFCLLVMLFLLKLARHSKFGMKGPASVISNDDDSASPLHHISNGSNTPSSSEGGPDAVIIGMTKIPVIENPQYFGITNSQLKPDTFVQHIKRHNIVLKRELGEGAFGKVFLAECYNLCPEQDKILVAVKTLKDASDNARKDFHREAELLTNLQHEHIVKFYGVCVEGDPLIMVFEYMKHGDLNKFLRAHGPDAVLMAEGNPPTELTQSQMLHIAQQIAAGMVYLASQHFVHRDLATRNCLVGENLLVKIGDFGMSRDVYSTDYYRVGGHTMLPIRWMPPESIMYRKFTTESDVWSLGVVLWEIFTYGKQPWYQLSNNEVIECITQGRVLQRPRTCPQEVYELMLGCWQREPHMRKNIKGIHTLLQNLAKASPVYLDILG
Chain of EPHA7 (human) (Q15375 whole entry, looked up): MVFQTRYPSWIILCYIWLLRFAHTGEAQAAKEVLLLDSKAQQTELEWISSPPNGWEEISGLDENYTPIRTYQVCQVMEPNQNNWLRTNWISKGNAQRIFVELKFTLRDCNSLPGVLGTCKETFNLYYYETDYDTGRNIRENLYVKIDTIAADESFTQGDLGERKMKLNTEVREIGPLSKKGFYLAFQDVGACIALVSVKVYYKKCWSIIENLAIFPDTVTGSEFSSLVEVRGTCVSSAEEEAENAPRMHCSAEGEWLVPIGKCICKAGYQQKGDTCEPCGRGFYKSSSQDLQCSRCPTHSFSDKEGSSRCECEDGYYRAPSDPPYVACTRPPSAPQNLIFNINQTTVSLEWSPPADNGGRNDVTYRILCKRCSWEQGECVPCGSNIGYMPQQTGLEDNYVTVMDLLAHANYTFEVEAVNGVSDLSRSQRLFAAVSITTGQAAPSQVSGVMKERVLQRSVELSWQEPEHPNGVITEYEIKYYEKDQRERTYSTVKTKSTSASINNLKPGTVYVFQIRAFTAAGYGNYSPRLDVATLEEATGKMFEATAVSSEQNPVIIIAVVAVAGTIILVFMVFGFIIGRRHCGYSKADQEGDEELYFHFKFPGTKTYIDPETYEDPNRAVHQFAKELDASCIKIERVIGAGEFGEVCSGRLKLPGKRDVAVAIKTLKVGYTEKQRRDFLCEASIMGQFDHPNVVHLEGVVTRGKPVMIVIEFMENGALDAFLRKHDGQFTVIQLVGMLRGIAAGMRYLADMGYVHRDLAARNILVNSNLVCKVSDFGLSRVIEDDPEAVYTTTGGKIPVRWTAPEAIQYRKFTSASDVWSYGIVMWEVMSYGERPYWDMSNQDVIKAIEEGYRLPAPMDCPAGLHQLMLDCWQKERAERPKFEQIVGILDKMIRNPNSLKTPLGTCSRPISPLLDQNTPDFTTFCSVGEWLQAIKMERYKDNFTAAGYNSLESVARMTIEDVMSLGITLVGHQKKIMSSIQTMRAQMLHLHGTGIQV
Chain of GSK3A (human) (P49840 whole entry, looked up): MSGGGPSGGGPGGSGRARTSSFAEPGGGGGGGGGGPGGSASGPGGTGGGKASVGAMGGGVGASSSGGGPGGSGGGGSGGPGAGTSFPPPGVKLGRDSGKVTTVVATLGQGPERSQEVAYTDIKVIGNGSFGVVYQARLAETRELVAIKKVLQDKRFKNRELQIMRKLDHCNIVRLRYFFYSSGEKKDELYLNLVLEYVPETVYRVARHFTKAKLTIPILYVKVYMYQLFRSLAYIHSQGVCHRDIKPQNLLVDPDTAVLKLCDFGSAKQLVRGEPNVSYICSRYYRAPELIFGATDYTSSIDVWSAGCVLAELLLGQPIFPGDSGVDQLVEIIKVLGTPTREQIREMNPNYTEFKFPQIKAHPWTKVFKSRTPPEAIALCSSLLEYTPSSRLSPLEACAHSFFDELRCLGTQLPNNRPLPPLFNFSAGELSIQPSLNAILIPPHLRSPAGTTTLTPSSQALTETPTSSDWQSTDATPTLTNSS
Chain of LYN (human) (P07948 whole entry, looked up): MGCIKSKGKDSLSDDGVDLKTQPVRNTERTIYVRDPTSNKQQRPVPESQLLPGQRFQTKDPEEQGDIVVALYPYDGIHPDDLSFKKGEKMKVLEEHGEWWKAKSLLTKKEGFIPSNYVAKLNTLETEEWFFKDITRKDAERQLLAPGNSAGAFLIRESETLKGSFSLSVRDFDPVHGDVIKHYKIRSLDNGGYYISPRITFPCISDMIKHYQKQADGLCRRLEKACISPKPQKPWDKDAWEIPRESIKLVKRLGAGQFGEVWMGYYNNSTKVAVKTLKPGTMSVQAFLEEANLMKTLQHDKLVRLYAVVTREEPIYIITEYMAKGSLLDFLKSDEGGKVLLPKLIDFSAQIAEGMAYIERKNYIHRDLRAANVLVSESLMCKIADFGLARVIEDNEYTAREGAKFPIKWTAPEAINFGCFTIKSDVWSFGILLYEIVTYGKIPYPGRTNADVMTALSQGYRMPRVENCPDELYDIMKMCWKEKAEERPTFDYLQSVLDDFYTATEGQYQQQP

- Kd (EPHA7 (human)): 71 nM
- Kd (MYO3B (human)): 6.8 µM
- Kd (MAPK8 (human)): 100 nM
- Kd (CDK18 (human)): 1100 nM
- Kd (RPS6KA4 KD1 (human)): 1900 nM
- Kd (MAP4K5 (human)): 29 nM
- Kd (CIT (human)): 210 nM
- Kd (CDK8 (human)): 1100 nM
- Kd (MAPK14 (human)): 38 nM
- Kd (CDC42BPB (human)): 2000 nM
- Kd (GSK3A (human)): 6 µM
- Kd [1]: 4.2 nM
- Kd (EPHB3 (human)): 3.8 µM
- Kd (PIM3 (human)): 13 µM
- Kd (SYK (human)): 260 nM
- Kd (LIMK1 (human)): 27 µM
- Kd (EPHB1 (human)): 150 nM
- Kd (NTRK2 (human)): 1000 nM
- Kd [2]: 2.6 nM
- Kd (TAOK3 (human)): 1600 nM
- Kd (MATK (human)): 26 µM
- Kd (FGFR2 (human)): 3000 nM
- Kd (HIPK1 (human)): 4.7 µM
- Kd (INSRR (human)): 31 µM
- Kd (FRK (human)): 9.6 nM
- Kd [3]: 3 nM
- Kd (MKNK2 (human)): 71 nM
- Kd (MAP3K2 (human)): 13 µM
- Kd [4]: 230 nM
- Kd (PLK4 (human)): 15 µM
- Kd [5]: 33 µM
- Kd (LYN (human)): 2 nM
- Kd (CDK19 (human)): 940 nM
- Kd (TYRO3 (human)): 1500 nM
- Kd (RPS6KA5 KD1 (human)): 13 µM
- Kd [6]: 20 nM
- Kd (STK39 (human)): 37 µM
- Kd (GSK3B (human)): 29 µM
- Kd (YES1 (human)): 160 nM
- Kd (CSNK1G1 (human)): 36 µM
Compound: COc1cc2ncnc(Oc3cccc(NC(=O)Nc4cc(C(C)(C)C(F)(F)F)on4)c3)c2cc1OC
